What was measured:
Assay in all cases: relative viability (nuclei count vs DMSO), 5 days (fraction); higher = more cells survive
TPCA-1 + Dasatinib = compound: C1=CC(=CC=C1C2=CC(=C(S2)NC(=O)N)C(=O)N)F [TPCA-1] + Cc1nc(Nc2ncc(C(=O)Nc3c(C)cccc3Cl)s2)cc(N2CCN(CCO)CC2)n1 [Dasatinib] (partner 0.075 µM)
Procedure, shortened: (§1)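 A single step with final 0.05% Triton X-100, 1% formaldehyde and 1 ug/ml Hoechst fixed the cells and stained nuclei 5 days after treatment. Lung cancer cell lines in 1536-well plates had been treated by pin tool the day after seeding with one drug alone or a fixed anchor-drug dose plus five library-drug doses (not always all listed) in √10 steps, and nuclei were counted on 4× images. Relative viability is the ratio of nuclei in treated wells to nuclei in vehicle wells, taken as the median of duplicate plates.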

TPCA-1 + Trametinib = compound: C1=CC(=CC=C1C2=CC(=C(S2)NC(=O)N)C(=O)N)F [TPCA-1] + CC(=O)Nc1cccc(-n2c(=O)n(C3CC3)c(=O)c3c(Nc4ccc(I)cc4F)n(C)c(=O)c(C)c32)c1 [Trametinib] (partner 0.02 µM)
Procedure, shortened: as §1

TPCA-1 + Lapatinib = compound: C1=CC(=CC=C1C2=CC(=C(S2)NC(=O)N)C(=O)N)F [TPCA-1] + CS(=O)(=O)CCNCc1ccc(-c2ccc3ncnc(Nc4ccc(OCc5cccc(F)c5)c(Cl)c4)c3c2)o1 [Lapatinib] (partner 2 µM)
Procedure, shortened: as §1

[1] = compound: C1/C(=C\C2=CC=CS2)/C(=O)/C(=C/C3=CC=CS3)/C1 + CS(=O)(=O)CCNCc1ccc(-c2ccc3ncnc(Nc4ccc(OCc5cccc(F)c5)c(Cl)c4)c3c2)o1 [Lapatinib] (partner 2 µM)
Procedure, shortened: as §1

Cell Line | relative viability (TPCA-1 + Dasatinib; first compound 0.04 µM) | relative viability (TPCA-1 + Dasatinib; first compound 0.1265 µM) | relative viability (TPCA-1 + Dasatinib; first compound 0.4 µM) | relative viability (TPCA-1 + Dasatinib; first compound 1.265 µM) | relative viability (TPCA-1 + Dasatinib; first compound 4 µM) | relative viability (TPCA-1 + Trametinib; first compound 0.04 µM) | relative viability (TPCA-1 + Trametinib; first compound 0.1265 µM) | relative viability (TPCA-1 + Trametinib; first compound 0.4 µM) | relative viability (TPCA-1 + Trametinib; first compound 1.265 µM) | relative viability (TPCA-1 + Trametinib; first compound 4 µM) | relative viability (TPCA-1 + Lapatinib; first compound 0.04 µM) | relative viability (TPCA-1 + Lapatinib; first compound 0.1265 µM) | relative viability (TPCA-1 + Lapatinib; first compound 0.4 µM) | relative viability (TPCA-1 + Lapatinib; first compound 1.265 µM) | relative viability (TPCA-1 + Lapatinib; first compound 4 µM) | relative viability ([1]; first compound 0.2 µM) | relative viability ([1]; first compound 0.6325 µM) | relative viability ([1]; first compound 2 µM) | relative viability ([1]; first compound 6.325 µM) | relative viability ([1]; first compound 20 µM)
HCC-15 | 0.735 | 0.495 | 0.592 | 0.523 | 0.392 | 0.402 | 0.372 | 0.347 | 0.346 | 0.311 | 0.942 | 0.856 | 0.908 | 0.819 | 0.52 | 0.929 | 0.897 | 0.835 | 0.762 | 0.854
H3255 | 0.421 | 0.352 | 0.431 | 0.305 | 0.301 | 0.728 | 0.545 | 0.62 | 0.596 | 0.519 | 0.261 | 0.24 | 0.236 | 0.219 | 0.162 | 0.235 | 0.296 | 0.127 | 0.227 | 0.237
NCI-H1792 | 0.8 | 0.715 | 0.765 | 0.678 | 0.624 | 0.489 | 0.333 | 0.394 | 0.374 | 0.243 | 0.964 | 0.893 | 0.843 | 0.9 | 0.455 | 0.819 | 0.915 | 1.04 | – | 0.899
NCI-H596 | 0.661 | 0.559 | 0.599 | 0.597 | 0.763 | 0.801 | 0.78 | 0.74 | 0.884 | 0.658 | 1.06 | 1.08 | 1.15 | 1.13 | 1.07 | 1.13 | 1.03 | 1.1 | 1 | 1.02
NCI-H2087 | 1.15 | 0.658 | 0.816 | 0.745 | 0.397 | 0.201 | 0.163 | 0.231 | 0.152 | 0.139 | 1.08 | 0.914 | 0.905 | 0.798 | 0.247 | 0.866 | 0.825 | 1.08 | 0.894 | 1.09
NCI-H661 | 1 | 0.838 | 0.928 | 0.806 | 0.394 | 0.67 | 0.541 | 0.535 | 0.573 | 0.377 | 0.632 | 0.448 | 0.562 | 0.522 | 0.387 | 0.465 | 0.49 | 0.507 | 0.475 | 0.516
EMC-BAC-2 | 0.364 | 0.352 | 0.368 | 0.46 | 0.343 | 0.869 | 0.811 | 0.979 | 0.742 | 0.906 | 0.993 | 0.854 | 0.895 | 0.752 | 0.756 | 0.931 | 0.873 | 0.952 | 0.866 | 0.843
NCI-H1355 | 0.836 | 0.652 | 0.716 | 0.599 | 0.519 | 0.494 | 0.384 | 0.406 | 0.381 | 0.41 | 1.15 | 0.879 | 0.956 | 0.818 | 0.719 | 0.964 | 0.951 | 1.04 | 0.908 | 0.911
NCI-H23 | 1.04 | 0.711 | 0.879 | 0.758 | 0.402 | 0.535 | 0.377 | 0.362 | 0.382 | 0.358 | 1.06 | 0.96 | 1.05 | 1 | 0.349 | 0.918 | 1.4 | 1.44 | 0.861 | 1.12
NCI-H1651 | 0.444 | 0.382 | 0.402 | 0.395 | 0.383 | 0.894 | 0.799 | 0.838 | 0.824 | 0.787 | 1.02 | 0.746 | 0.951 | 0.848 | 0.8 | 0.81 | 0.93 | 0.793 | – | 0.769
NCI-H1975 | 0.39 | 0.381 | 0.368 | 0.368 | 0.188 | 0.358 | 0.365 | 0.392 | 0.43 | 0.147 | 0.941 | 0.75 | 0.906 | 0.714 | 0.494 | 1.01 | 0.789 | 0.966 | 0.613 | 0.823
COR-L23 | 0.532 | 0.434 | 0.54 | 0.422 | 0.42 | 0.715 | 0.512 | 0.713 | 0.547 | 0.33 | 1.09 | 0.859 | 0.903 | 1.09 | 0.678 | 0.923 | 1.02 | 0.841 | 0.859 | 0.92
LOU-NH91 | 0.558 | 0.558 | 0.38 | 0.43 | 0.52 | 0.8 | 0.735 | 0.835 | 0.773 | 0.714 | 0.796 | 0.717 | 0.753 | 0.779 | 0.596 | 0.744 | 0.821 | 0.782 | 0.607 | 0.802
NCI-H647 | 0.21 | 0.15 | 0.231 | 0.0911 | 0.079 | 0.553 | 0.444 | 0.47 | 0.382 | 0.277 | 1.34 | 0.919 | 1.06 | 0.671 | 0.466 | 1.13 | 1.26 | 1.28 | 0.763 | 1
NCI-H1915 | 0.322 | 0.292 | 0.33 | 0.263 | 0.243 | 0.343 | 0.272 | 0.286 | 0.279 | 0.263 | 1.06 | 0.984 | 1.03 | 0.875 | 0.813 | 0.984 | 0.996 | 0.964 | 0.937 | 1.03
NCI-H1734 | 0.508 | 0.421 | 0.492 | 0.455 | 0.41 | 0.754 | 0.598 | 0.7 | 0.644 | 0.628 | 1.21 | 0.946 | 1.13 | 1.02 | 0.623 | 1.02 | 1.05 | 1.17 | 0.906 | 1.09
NCI-H1993 | 0.564 | 0.54 | 0.617 | 0.522 | 0.537 | 0.545 | 0.563 | 0.563 | 0.423 | 0.425 | 0.855 | – | 0.735 | 0.765 | 1.11 | 0.815 | 0.783 | 0.731 | 0.685 | 0.781
LK-2 | 0.255 | 0.226 | 0.386 | 0.241 | 0.237 | 0.76 | 0.535 | 0.873 | 0.659 | 0.504 | 1.11 | 0.636 | 0.879 | 0.874 | 0.419 | 0.897 | 0.887 | 1.2 | 1.05 | 0.988
HCC-78 | 0.485 | 0.452 | 0.402 | 0.413 | 0.297 | 0.837 | 0.677 | 0.722 | 0.78 | 0.519 | 0.628 | 0.35 | 0.718 | 0.672 | 0.0936 | 0.759 | 0.828 | 1.1 | 0.562 | 0.814
NCI-H2405 | 0.226 | 0.216 | 0.22 | 0.207 | 0.208 | 0.662 | 0.606 | 0.722 | 0.469 | 0.638 | 1.19 | 0.915 | 1.1 | – | 0.949 | 1.12 | 1.07 | 1.33 | 0.887 | 1.14
HOP-62 | 0.874 | 0.642 | 0.689 | 0.539 | 0.671 | 0.407 | 0.373 | 0.418 | 0.47 | 0.366 | 1.23 | 0.901 | 1.02 | 0.882 | 0.873 | 0.902 | 0.589 | 0.9 | 0.932 | 0.983
NCI-H650 | 0.464 | 0.436 | 0.409 | 0.321 | 0.332 | 1.08 | 0.857 | 0.948 | 0.862 | 0.813 | 1.03 | 1.05 | 0.93 | 0.357 | 0.487 | 0.944 | 1.17 | 1.05 | 0.925 | 0.989
NCI-H358 | 0.193 | 0.135 | 0.173 | 0.152 | 0.117 | 0.167 | 0.165 | 0.157 | 0.158 | 0.0935 | 0.479 | 0.428 | 0.462 | 0.361 | 0.334 | 0.435 | 0.482 | 0.475 | 0.459 | 0.424
BEN | 0.294 | 0.283 | 0.335 | 0.391 | 0.267 | 1.04 | 0.736 | 1.18 | 1.39 | 1.04 | 0.731 | 0.5 | 0.672 | 0.793 | 0.661 | 0.621 | 0.801 | 0.795 | 0.488 | 0.611
SW 1573 | 0.669 | 0.375 | 0.476 | 0.361 | 0.336 | 0.611 | 0.569 | 0.535 | 0.516 | 0.545 | 0.829 | 1.04 | 1.17 | 1.18 | 1.19 | 1.07 | 1.15 | 1.17 | 1.09 | 1.03
SK-MES-1 | 0.491 | 0.251 | 0.333 | 0.224 | 0.152 | 0.536 | 0.524 | 0.507 | 0.429 | 0.39 | 0.479 | 0.402 | 0.429 | 0.471 | 0.34 | 0.498 | 0.45 | 0.486 | 0.322 | 0.395
NCI-H1755 | 0.499 | 0.424 | 0.396 | 0.31 | 0.285 | 0.846 | 0.716 | 0.72 | 0.714 | 0.591 | 0.991 | 0.984 | 1.02 | 0.898 | 0.689 | 1.07 | 1.03 | 1.09 | 0.882 | 0.993

Source: the supplement of paper PMC10307832
